One experiment relates to brain tissue (edema). The experiment can be described thus: Brain tissue dry/wet weight ratio. It is filed as in vivo, C57BL/6 mice. The note with it: 24 h after administration; tPA 10 mg/kg alone; T541 20 mg/kg + tPA 10 mg/kg. As to the method:
Brain tissue dry/wet weight ratio: after reperfused for 24 hours, mice were immediately anesthetized; the head was cut off to take brain; left and right brain was respectively weighed (denoted as wet weight). Afterwards, the brain was placed into a 60° C. drying oven for drying for 72 hours, and then weighed (denoted as dry weight). Brain tissue dry/wet weight ratio is calculated by […].

A further experiment has as its system VE-cadherin. Kind of experiment: Western blotting of VE-cadherin, endothelial cells after hypoxia/reoxygenation. In kind it is cell-based. The conditions noted are these: rat brain endothelial cells, hypoxia 4.5 h/reoxygenation 3 h; tPA 20 mcg/ml alone (model group); T541 400 mcg/ml + tPA 20 mcg/ml. An excerpt:
(§1) Establishment of rat brain endothelial cell H/R model: rat brain endothelial cells were purchased from ATCC, and then subcultured to 5-6 generations in normal conditions for further experiment. […]

A further experiment relates to Bcl-2. Kind of experiment: Western blotting of Bcl-2, endothelial cells after hypoxia/reoxygenation. In kind it is cell-based. The conditions noted are these: rat brain endothelial cells, hypoxia 4.5 h/reoxygenation 3 h; tPA 20 mcg/ml alone (model group); T541 400 mcg/ml + tPA 20 mcg/ml.
Excerpt: as §1
For orientation: Immunoblotting shows a protein as a band on a membrane.

The next experiment concerns JAM-1. Kind of experiment: Western blotting of JAM-1, cortex of ischemic penumbra. In kind it is in vivo, C57BL/6 mice. The note with it: brain tissue 24 hours after administration, sham = 1.00; tPA 10 mg/kg alone; T541 20 mg/kg + tPA 10 mg/kg. On the procedure: (§2) After reperfused for 24 hours, mice were perfused by normal saline; Western blotting analysis was conducted to the penumbra field of infarcted right cerebral cortex. After perfused, mice brain tissue was taken out; cerebellum and prefrontal lobe were cut off; the brain tissue of right brain close to 1 cm of the central joint of left and right hemispheres along the sagittal view; infarcted penumbra field of the rest tissues was cut off along an 45° angle; the cerebral cortex of the penumbra field was peeled off and preserved at low temperature. Right cerebral cortex was taken and added 1×RIPA lysate and a Cocktail protease inhibitor (1:100, Cell Signaling Technology, US) for full pyrolysis and ultrasonic treatment, and then 17000 g were centrifuged for 30 minutes. Supernatant was taken and added 5×loading buffer by volume, boiled for 20 minutes in boiling water, and then preserved at −80° C. Excessive supernatant was taken out and quantified by a BCA protein quantification liquor (ThermoScientific, US) to measure absorbance value at 560 nm of ELIASA and to calculate the protein concentration according to a standard curve. […] The density of electrophoretic strips was analyzed by an image analysis software Quantityone. […]

Another experiment concerns mitochondrial complex I. Kind of experiment: Mitochondrial complex I activity in brain tissue. The note with it: brain tissue 24 hours after administration; tPA 10 mg/kg alone or + T541 20 mg/kg or ingredients at Table 7 doses. In kind it is in vivo, C57BL/6 mice. An excerpt:
To compare the therapeutical effect on reperfusion injury caused by tPA thrombolysis between the traditional Chinese medicinal composition of the present invention and each ingredient (total saponins of Astragalus, the experiment was divided into the following group (tPA is combined with T541, individual ingredient thereof and compatibility of any two ingredients) specifically as follows: tPA+total saponins of Astragalus (tPA+HQ), tPA+ salvianolic acids (tPA+DS), tPA+Panax notoginseng saponins (tPA+SQ), tPA+ total saponins of Astragalus+salvianolic acids (tPA+HQ+DS), tPA+ total saponins of Astragalus+Panax notoginseng saponins (tPA+HQ+SQ), tPA+ salvianolic acids+Panax notoginseng saponins (tPA+DS+SQ) and tPA+T541. Normal saline served as an isovolumetric control. The usage number in each group is 6.
ELISA adsorption kit was used to measure the change on the content of MDA, 8-hydroxyl-2′-deoxyguanosine (8-OHdG), adenosine triphosphate (ATP), adenosine diphosphate (ADP) and adenosine monophosphate (AMP) in the penumbra field of brain tissue cortex of the mode, and the change on the activity of mitochondrial complexes I, II, IV and V. 6 samples were used to repeat the independent experiment for at least three times for each group of data.

Another experiment has as its system Laminin. The experiment can be described thus: Western blotting of Laminin, basement membrane. It is filed as in vivo, C57BL/6 mice. The conditions noted are these: brain tissue 24 hours after administration, sham = 1.00; tPA 10 mg/kg alone; T541 20 mg/kg + tPA 10 mg/kg. As to the method: as §2

Results on one substance are retold here after patent US20210038668A1, “TRADITIONAL CHINESE MEDICINE COMPOSITION FOR PREVENTING AND/OR TREATING ISCHEMIC REPERFUSION INJURY” (TASLY PHARMACEUTICAL GROUP CO., LTD., priority 2018, published 2021).

“tPA: tissue-type plasminogen activator (tPA) for thrombolysis”: the “Brain dry/wet weight ratio” value in the experiment on brain tissue (edema) was determined as 0.801 ± 0.002. Also, the VE-cadherin/β-actin in the experiment with VE-cadherin is given as 0.58 ± 0.07. Moreover, the Bcl-2 in the experiment with Bcl-2 turned out to be 0.69 ± 0.12. In the experiment on JAM-1, the JAM-1/β-actin came to 0.52 ± 0.04. The “Complex I activity” value in the experiment with mitochondrial complex I was 1.75 ± 0.14. Moreover, in the experiment on Laminin, the Laminin content came to 0.47 ± 0.06.
